Molecular target: human SGLT2 (Homo sapiens (Human), UniProt P31639)
Test: Inhibitory effects on human SGLT2 activities (14C-AMG uptake, sodium-dependent glucose transport assay)
Type: cell-based
Conditions: CHO cells stably expressing hSGLT2, 37° C., 2 h, single determinations
Summary of the method: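 CHO cells stably expressing hSGLT2 were preincubated 10 min at 37 °C in choline (Na+-free) buffer, then exposed 2 h at 37 °C to compound in Na+ uptake buffer with 8 μM 14C-AMG and 1 mM unlabeled AMG. Radioactivity was scintillation counted; IC50 came from nonlinear regression.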

human SGLT2, sequence (P31639 whole entry): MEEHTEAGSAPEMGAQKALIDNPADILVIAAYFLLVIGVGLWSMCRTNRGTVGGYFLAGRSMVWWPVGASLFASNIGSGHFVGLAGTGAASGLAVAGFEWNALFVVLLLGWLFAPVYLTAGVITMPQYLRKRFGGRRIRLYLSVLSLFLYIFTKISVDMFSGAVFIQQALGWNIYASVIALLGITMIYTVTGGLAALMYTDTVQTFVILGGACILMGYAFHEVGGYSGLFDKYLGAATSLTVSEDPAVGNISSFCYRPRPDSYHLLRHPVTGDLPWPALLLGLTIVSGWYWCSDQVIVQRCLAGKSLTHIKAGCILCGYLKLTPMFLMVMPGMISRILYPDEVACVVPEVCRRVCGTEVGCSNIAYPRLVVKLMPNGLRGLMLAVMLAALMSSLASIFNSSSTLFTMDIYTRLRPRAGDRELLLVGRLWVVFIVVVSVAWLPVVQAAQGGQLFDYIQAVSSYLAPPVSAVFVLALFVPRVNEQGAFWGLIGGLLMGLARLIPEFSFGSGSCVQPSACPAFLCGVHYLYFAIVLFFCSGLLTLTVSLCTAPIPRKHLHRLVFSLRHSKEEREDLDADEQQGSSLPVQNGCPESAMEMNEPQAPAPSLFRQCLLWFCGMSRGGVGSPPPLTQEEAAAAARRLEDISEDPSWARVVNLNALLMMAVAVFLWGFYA

Row | IC50 | SMILES
1 | 1.11 nM | CC1Cc2c(Cl)c(Cc3ccc(C4CC4)cc3)cc([C@@H]3O[C@H](CO)[C@@H](O)[C@H](O)[C@H]3O)c2O1 (stereo partly drawn) [Example E133, (2S,3R,4R,5S,6R)-2-(4-Chloro-5-(4-cyclopropylbenzyl)-2-methyl-2,3-dihydrobenzofuran-7-yl)-6-(hydroxymethyl)tetrahydro-2H-pyran-3,4,5-triol]
2 | 2.12 nM | CC(O)c1ccc(Cc2cc([C@@H]3O[C@H](CO)[C@@H](O)[C@H](O)[C@H]3O)c3c(c2Cl)OCC3)cc1 (stereo partly drawn) [Example E169, (2S,3R,4R,5S,6R)-2-(7-Chloro-6-(4-(1-hydroxyethyl)benzyl)-2,3-dihydrobenzofuran-4-yl)-6-(hydroxymethyl)tetrahydro-2H-pyran-3,4,5-triol]
3 | 3.21 nM | CCOc1ccc(Cc2cc([C@@H]3O[C@H](CF)[C@@H](O)[C@H](O)[C@H]3O)c3c(c2Cl)OCC3)cc1 [Example E126, (2S,3R,4R,5S,6S)-2-(7-Chloro-6-(4-ethoxybenzyl)-2,3-dihydrobenzofuran-4-yl)-6-(fluoromethyl)tetrahydro-2H-pyran-3,4,5-triol]
4 | 0.715 nM | CCc1ccc(Cc2cc([C@@H]3O[C@H](CO)[C@@H](O)[C@H](O)[C@H]3O)c3c(c2Cl)OCC3)cc1 [Example E020, (2S,3R,4R,5S,6R)-2-(6-(4-Ethylbenzyl)-7-chloro-2,3-dihydrobenzofuran-4-yl)-6-(hydroxymethyl)-tetrahydro-2H-pyran-3,4,5-triol]
5 | 8.99 nM | CCOc1ccc(Cc2cc([C@@H]3O[C@H](CO)[C@@H](O)[C@H](O)[C@H]3O)c3c(c2Cl)OCC3OC)cc1 (stereo partly drawn) [Example E227, (2S,3R,4R,5S,6R)-2-(7-Chloro-6-(4-ethoxybenzyl)-3-methoxy-2,3-dihydrobenzofuran-4-yl)-6-(hydroxymethyl)-tetrahydro-2H-pyran-3,4,5-triol]
6 | 1.61 nM | COc1ccc(Cc2cc([C@@H]3O[C@H](CO)[C@@H](O)[C@H](O)[C@H]3O)c3c(c2Cl)CC(C)(C)O3)cc1 [Example E219, (2S,3R,4R,5S,6R)-2-(4-Chloro-5-(4-methoxybenzyl)-2,2-dimethyl-2,3-dihydrobenzofuran-7-yl)-6-(hydroxymethyl)tetrahydro-2H-pyran-3,4,5-triol]
7 | 1.16 nM | OC[C@H]1O[C@@H](c2cc(Cc3ccc(C4CCCC4)cc3)c(Cl)c3c2CCO3)[C@H](O)[C@@H](O)[C@@H]1O [Example E233, (2S,3R,4R,5S,6R)-2-(7-Chloro-6-(4-cyclopentylbenzyl)-2,3-dihydrobenzofuran-4-yl)-6-(hydroxymethyl)-tetrahydro-2H-pyran-3,4,5-triol]
8 | 1.15 nM | COc1ccc(Cc2cc([C@@H]3O[C@H](CO)[C@@H](O)[C@H](O)[C@H]3O)c3c(c2Cl)OCO3)cc1 [Example E161, (2S,3R,4R,5S,6R)-2-(7-Chloro-6-(4-methoxybenzyl)benzo[d][1,3]dioxol-4-yl)-6-(hydroxymethyl)tetrahydro-2H-pyran-3,4,5-triol]
9 | 1.82 nM | OC[C@H]1O[C@@H](c2cc(Cc3ccc4c(c3)OCCO4)c(Cl)c3c2OCCO3)[C@H](O)[C@@H](O)[C@@H]1O [Example E103, (2S,3R,4R,5S,6R)-2-(8-Chloro-7-((2,3-dihydrobenzo[b][1,4]dioxin-6-yl)methyl)-2,3-dihydrobenzo[b][1,4]dioxin-5-yl)-6-(hydroxymethyl)tetrahydro-2H-pyran-3,4,5-triol]
10 | 89.3 nM | CCN(CC)c1ccc(Cc2cc([C@@H]3O[C@H](CO)[C@@H](O)[C@H](O)[C@H]3O)ccc2Cl)cc1 [Example E210, (2S,3R,4R,5S,6R)-2-(4-Chloro-3-(4-(diethylamino)benzyl)phenyl)-6-(hydroxymethyl)tetrahydro-2H-pyran-3,4,5-triol]
11 | 4.38 nM | OC[C@H]1O[C@@H](c2ccc(Cl)c(Cc3ccc4c(c3)OCCCO4)c2)[C@H](O)[C@@H](O)[C@@H]1O [Example E029, (2S,3R,4R,5S,6R)-2-(4-Chloro-3-((3,4-dihydro-2H-benzo[b][1,4]dioxepin-7-yl)methyl)phenyl)-6-(hydroxymethyl)tetrahydro-2H-pyran-3,4,5-triol]
12 | 18.5 nM | COc1cc(Cl)c(Cc2ccc3c(c2)OCCO3)cc1[C@@H]1O[C@H](OC)[C@@H](O)[C@H](O)[C@H]1O [Example E096, (2S,3R,4R,5S,6S)-2-(4-Chloro-5-((2,3-dihydrobenzo[b][1,4]dioxin-6-yl)methyl)-2-methoxyphenyl)-6-methoxy-tetrahydro-2H-pyran-3,4,5-triol]
13 | 3.84 nM | CCOc1ccc(Cc2cc([C@@H]3O[C@H](CO)[C@@H](O)[C@H](O)[C@H]3O)cc(-c3ccccc3)c2C)cc1 [Example E077]

Row | SMILES | IC50
14 | OC[C@H]1O[C@@H](c2cc(Cc3ccc(OC4CCC4)cc3)c(Cl)c3c2CCO3)[C@H](O)[C@@H](O)[C@@H]1O [Example E234, (2S,3R,4R,5S,6R)-2-(7-Chloro-6-(4-cyclobutoxybenzyl)-2,3-dihydrobenzofuran-4-yl)-6-(hydroxymethyl)-tetrahydro-2H-pyran-3,4,5-triol] | 2.82 nM

From US9034921B2, “Diphenylmethane derivatives as SGLT2 inhibitors” (GREEN CROSS CORPORATION, priority 2011, dated 2015)
